Results published in patent publication US6235891A, “Glucocorticoid receptor agonist and decreased PP5” (South Alabama Medical Science Foundation, priority 1999, dated 2001).

Experiments:
[1] = system: glucocorticoid receptor (GR) binding to DNA; test: Gel mobility shift assay of GR binding to GRE DNA, A549 nuclear extracts; format: cell-based, human; conditions: 300 nM ISIS 15534 compared with 1 μM dexamethasone
Method: Nuclear extracts and gel mobility shift assays were conducted as previously described (Li et al. 1991) with slight modifications (Zuo et al. 1998). Briefly, A549 cells were cultured in 60 mm dishes and treated with ISIS 15521 or ISIS 15534 antisense oligonucleotides (Zuo et al. 1998) three dishes per group. Six hours after treatment, the cells were collected, washed with ice-cold PBS, and incubated in buffer A (10 mM HEPES, pH 7.9, 10 mM KCl, 0.1 mM EDTA, 0.1 mM EGTA, 1 mM DTT, 0.5 mM PMSF) at 4° C. for 15 minutes. The cells were then lysed by adding 25 μl 10% NP-40 and vigorous vortexing for 10 seconds. Nuclei were precipitated by centrifugation, resuspended in ice-cold buffer B (20 mM HEPES, pH 7.9, 0.4 M NaCl, 1 mM EDTA, 1 mM EGTA, 1 mM DTT, 1 mM PMSF), incubated at 4° C. for 60 minutes with gentle shaking, and then subjected to centrifugation at 4° C. for 5 minutes. The supernatant was collected, aliquoted, and stored at -80° C. […]
Referring to FIG. 3A, the inhibition of PP5 expression enhances glucocorticoid receptor binding to DNA. […] The relative light units of the cell extract were calculated as an average of three independent experiments, performed in triplicate, and presented as relative luciferase activity with error bars indicating SD. […]

[2] = system: PP5 mRNA; test: Northern blot analysis of PP5 mRNA expression in A549 cells; format: cell-based, human; conditions: dexamethasone 0-100 nM, 24 hours

Row | Compound | GR/GRE gel shift [1] | Expression of PP5 mRNA [2]
1 | ISIS 15534: chimeric PP5 antisense oligonucleotide, P=O wings, P=S deoxy gap; GGGCCCTATTGCTTGAGTGG, SEQ ID NO: 12 (sugars by position and backbone not given here; chimeric, phosphodiester wings, phosphorothioate deoxy gap) | more pronounced shift | –
2 | C[C@@H]1C[C@H]2[C@@H]3CCC4=CC(=O)C=C[C@]4(C)[C@@]3(F)[C@@H](O)C[C@]2(C)[C@@]1(O)C(=O)CO [dexamethasone, reference compound] | – | does not appear to change
